Data taken from US12692232B2, “Indole carboxamide compound, preparation therefor and use thereof” (NANJING RUISHUNING MEDICAL TECHNOLOGY CO., LTD., priority 2021, dated 2026).

Target: T1, TRPC6 channel (Homo sapiens, UniProt Q9Y210)
T1 sequence (Q9Y210 1-931): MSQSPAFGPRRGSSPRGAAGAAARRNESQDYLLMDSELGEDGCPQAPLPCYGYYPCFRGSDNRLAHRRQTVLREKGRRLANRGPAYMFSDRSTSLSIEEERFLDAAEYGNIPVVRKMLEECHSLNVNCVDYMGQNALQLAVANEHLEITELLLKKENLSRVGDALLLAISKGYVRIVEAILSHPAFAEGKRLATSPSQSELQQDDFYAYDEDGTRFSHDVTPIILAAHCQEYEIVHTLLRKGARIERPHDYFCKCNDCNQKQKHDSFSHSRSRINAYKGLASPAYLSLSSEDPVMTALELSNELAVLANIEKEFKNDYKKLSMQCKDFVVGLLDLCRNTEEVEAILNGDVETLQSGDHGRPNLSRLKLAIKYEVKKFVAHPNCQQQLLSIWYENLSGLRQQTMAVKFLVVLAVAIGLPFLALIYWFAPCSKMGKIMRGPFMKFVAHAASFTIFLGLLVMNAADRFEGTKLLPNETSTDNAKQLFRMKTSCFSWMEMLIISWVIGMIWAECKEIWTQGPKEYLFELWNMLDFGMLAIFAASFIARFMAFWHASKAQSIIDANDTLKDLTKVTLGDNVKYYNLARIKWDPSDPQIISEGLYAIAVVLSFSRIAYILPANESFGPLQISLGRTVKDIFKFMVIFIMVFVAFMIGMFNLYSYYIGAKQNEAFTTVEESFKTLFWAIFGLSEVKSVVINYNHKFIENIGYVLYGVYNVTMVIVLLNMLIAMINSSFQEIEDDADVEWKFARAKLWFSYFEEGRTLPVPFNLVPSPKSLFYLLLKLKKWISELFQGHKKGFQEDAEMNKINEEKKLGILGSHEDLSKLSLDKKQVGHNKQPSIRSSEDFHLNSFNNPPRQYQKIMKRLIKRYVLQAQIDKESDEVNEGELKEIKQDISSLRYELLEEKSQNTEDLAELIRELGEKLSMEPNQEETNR
Assay: IC50 on TRPC6 channel-mediated Ca2+ entry in HEK293hTRPC6 cells
Type: cell-based
Parameters: expressed in transfected cells; host or cells: HEK293 (lentiviral transduction, puromycin selection)
Conditions: HEK293hTRPC6, OAG 80 μM, Ca2+ 2 mM
Procedure: The half maximal inhibitory concentrations (IC50) of the compounds of the present invention (as exemplified by Compound 1-1 obtained in Example 1) on TRPC6 channel-mediated Ca^2+ entry were determined using HEK293hTRPC6, a tool cell overexpressing TRPC6 protein. Methods were as follows: HEK293hTRPC6, a tool cell overexpressing TRPC6 protein, was established in the same manner as in Example 7.
Determination of the effect of compounds on changes in intracellular calcium ion concentration in HEK293hTRPC6 cells: the mother solution of the compounds was diluted to the following concentrations, 0.1 nM, 0.3 nM, 1 nM, 3 nM, 10 nM, 30 nM, 100 nM, 300 nM, 1,000 nM, and 3,000 nM, respectively, using cell culture medium. […] The crawls were placed in the center of the bath, perfused with calcium-free Tyrode's solution for 5 min and fixed on the stage of an inverted fluorescence microscope. […] Fluorescence intensity was measured at different excitation wavelengths (340 nm, 380 nm) using a TILL Ion Imaging System (TILLvisION), and the value of fluorescence intensity emitted by intracellular fluorescent probe at different excitation wavelengths was substituted into the formula: [Ca^2+]i=Kd×β×(R−Rmin)/[…]. […] Dose-effect curves were fitted using GraphPad Prism software and the IC50 was calculated.

SMILES | IC50 [nM]
Cn1c(C(=O)NCCC(=O)O)cc2ccccc21 [3-[(1-methyl-1H-indole-2-carbonyl)amino]propionic acid, reference compound] | 24.1
CC(=O)OCCCNC(=O)c1c(C=O)c2ccccc2n1C [compound 1-1, propyl 3-[(3-formyl-1-methyl-1H-indole-2-carbonyl)amino]acetate] | 11.4
